# Assay results: patent publication US8927504B2, “Combined use of dipeptidyl peptidase 4 inhibitor and sweetener” (Mitsubishi Tanabe Pharma Corporation, priority 2007, dated 2015)
# Assays:
# GLP-1 = conditions: Shima et al., Acta Endocrinologica 1990; cited from earlier work
# active GLP-1 in plasma [1] = experiment: GLP-1 secretion-stimulating action by combined use of DPP4 inhibitor and sweetener (3), Example 5; assay type: in vivo, mouse; conditions: C57BL/6J mice, mean ± SEM, n = 5
# Description: Purified water was administered orally (10 mL/kg) as a control.
# D-mannitol (Wako Pure Chemical Industries, Ltd.) at 3 g/kg, melibiose (Wako Pure Chemical Industries, Ltd.) at 6 g/kg or acesulfame K (Wako Pure Chemical Industries, Ltd.) at 3 g/kg was used as sweetener and administered orally (10 mL/kg). Purified water was administered orally (10 mL/kg) as a control.
# [2] = Body weight-reducing test using DIO mice (2), Example 6; assay type: in vivo, mouse; conditions: for Body weight gain after 12 days / Body weight gain after 13 days: high fat diet-fed C57BL/6J mice, mean ± SEM, n = 9; for fat mass (g) as compared with the control group / lean mass (g) in comparison with the control group / body weights as compared with the control group: sweetener 5 w/w % combined with Compound A′ 10 mg/100 g in-feed; for fat mass (g) as compared with the control group / lean mass (g) in comparison with the control group: body composition 15 days after dosing; for body weights as compared with the control group: each of days 2 to 13 (or day 12) after dosing
# Description: Testing was carried out in the same manner as (1) of Example 3 above. High fat diet-fed, male C57BL/6J mice housed until age 14 to 22 weeks were used in the test.
# The study animals were used in the test after first grouping according to body weight and blood sugar level.
# The animals were administered test DPP4 inhibitor and test sweetener in-feed for up to 15 days.
# Body weights and food intake were measured over time after the start of administration of the test substances. Testing and analysis of measurement results were carried out in the same manner as (1) of Example 3 above.
# In addition, in the case body weight reducing effect was observed, body composition was measured in the same manner as (1) of Example 3 above.
# D-mannitol (Wako Pure Chemical Industries, Ltd.), melibiose (Wako Pure Chemical Industries, Ltd.) or acesulfame K (Wako Pure Chemical Industries, Ltd.) was used as sweetener and each was administered in-feed at 5 w/w %. In addition, Compound A′ was administered as DPP4 inhibitor in-feed at 10 mg/100 g.
# Body weight reducing-effect was tested for the cases of combined use of each of these sweeteners and DPP4 inhibitor in accordance with the method described in (1) above (n=9 animals per group).
# active GLP-1 in plasma [3] = experiment: GLP-1 secretion-stimulating action by combined use of DPP4 inhibitor and sweetener (2), Example 4; assay type: in vivo, mouse; conditions: 1 hour after dosing, relative to 100 for Compound A′ and fructooligosaccharide 6 g/kg, C57BL/6J mice
# Description: Male C57BL/6J mice (Clea Japan, Inc.) (7-week-old at time of use) were used in the test.
# These study animals were used in the test after first fasting starting on the night prior to the test and then grouping according to body weight. The animals were orally administered test DPP4 inhibitor (or purified water as a control) (10 mL/kg). At 30 minutes after administration, the animals were then orally administered (10 mL/kg) a solution of test sweetener (or purified water as a control) followed by collecting blood samples at 0, 30, 60, 180 and 300 minutes after administration. These samples were then measured for concentrations of active GLP-1 in plasma.
# Measurement of plasma active GLP-1 concentrations and analysis and testing of the measurement results were carried out in the same manner as (1) of Example 1 above.
# Fructooligosaccharide (Meiji Seika Kaisha Ltd.), kestose (Meiji Seika Kaisha Ltd., GF2), raffinose (Wako Pure Chemical Industries, Ltd.), melibiose (Wako Pure Chemical Industries, Ltd.), xylooligosaccharide (Suntory Ltd.), xylose (Wako Pure Chemical Industries, Ltd.), xylitol (Wako Pure Chemical Industries, Ltd.), sorbitol (Wako Pure Chemical Industries, Ltd.), D-mannitol (Wako Pure Chemical Industries, Ltd.), erythritol (Wako Pure Chemical Industries, Ltd.), maltitol (Hayashibara Biochemical Laboratories, Inc.), sucralose (San-Ei Gen F.F.I., Inc.) or acesulfame K (Wako Pure Chemical Industries, Ltd.) was used as sweetener and administered orally (10 mL/kg) at 6 g/kg, 3 g/kg or 1 g/kg.
# In addition, (2S)-2-cyano-1-[trans-4-(dimethylaminocarbonyl)cyclohexylamino]acetylpyrrolidine benzenesulfonate (hereafter referred to as Compound A′) as DPP4 inhibitor (or purified water as a control) was used at 10 mg/kg and administered orally (10 mL/kg).
# Blood active GLP-1 level-increasing action was tested for the cases of combined use of DPP4 inhibitor and each type of sweetener in accordance with the method described in (1) above (n=4 to 5 animals per group).
# Blood active GLP-1 concentrations (1 hour after dosing) in the groups dosed with both each type of sweetener (6 g/kg, 3 g/kg or 1 g/kg) and Compound A′ (10 mg/kg) were represented as relative values with respect to blood active GLP-1 concentrations (1 hour after dosing) in the group dosed with fructooligosaccharide (6 g/kg) and Compound A′.
# [4] = Body weight-reducing test using DIO mice (3), Example 7; assay type: in vivo, mouse; conditions: for Body weight gain After 8 days / Body weight gain After 15 days: sweetener in feed at 5 w/w % combined with Compound A′ in feed at 10 mg/100 g, high fat diet-fed C57BL/6J mice, mean ± SEM, n = 7
# Description: Testing was carried out in the same manner as (1) of Example 3 above. High fat diet-fed, male C57BL/6J mice housed until age 16 weeks were used in the test.
# The study animals were used in the test after first grouping according to body weight.
# The animals were administered test DPP4 inhibitor and test sweetener in-feed for up to 15 days. Body weights and food intake were measured over time after the start of administration of the test substances.
# Sorbitol (Wako Pure Chemical Industries, Ltd.) or erythritol (Wako Pure Chemical Industries, Ltd.) was used as sweetener and each was administered in-feed at 5 w/w %. In addition, Compound A′ was administered as DPP4 inhibitor in-feed at 10 mg/100 g. Body weight reducing effect was tested for the cases of combined use of each of these sweeteners and DPP4 inhibitor in accordance with the method described in (1) above (n=7 animals per group).
# [5] = DPP4 inhibitor 10 mg/kg orally combined with acesulfame K 3 g/kg orally
# [6] = Compound A′ alone in feed at 10 mg/100 g
# [7] = sweetener 3 g/kg orally combined with Compound A′ 10 mg/kg orally
# [8] = sweetener 3 g/kg orally alone (purified water instead of DPP4 inhibitor)
# [9] = sweetener alone 5 w/w % in-feed
# [10] = sweetener alone in feed at 5 w/w %
# [11] = sweetener in feed at 5 w/w % combined with Compound A′ in feed at 10 mg/100 g
# [12] = sweetener 6 g/kg orally combined with Compound A′ 10 mg/kg orally
# [13] = sweetener 5 w/w % combined with Compound A′ 10 mg/100 g in-feed
# [14] = sweetener alone, separate tests
structure (smiles),measurement,setting,value
OC[C@H]1O[C@H](O[C@H]2[C@H](O)[C@@H](O)C(O)O[C@@H]2CO)[C@H](O)[C@@H](O)[C@@H]1O (mixture of isomers) [maltose],blood GLP-1 levels following administration,GLP-1,blood GLP-1 levels are increased
"CN(C)C(=O)[C@H]1CC[C@H](NCC(=O)N2CCC[C@H]2C#N)CC1.O=S(=O)(O)c1ccccc1 (relative stereo) [Compound A′, (2S)-2-cyano-1-[trans-4-(dimethylaminocarbonyl)cyclohexylamino]acetylpyrrolidine benzenesulfonate]",Increase in AUC of Plasma active GLP-1,active GLP-1 in plasma [1]; DPP4 inhibitor 10 mg/kg orally combined with D-mannitol 3 g/kg orally,170 ± 27 pM·h
same,Increase in AUC of Plasma active GLP-1,active GLP-1 in plasma [1]; [5],142 ± 11 pM·h
same,Increase in AUC of Plasma active GLP-1,active GLP-1 in plasma [1]; DPP4 inhibitor 10 mg/kg orally combined with melibiose 6 g/kg orally,228 ± 32 pM·h
same,body weight as compared with the control group,[2]; Compound A′ alone 10 mg/100 g in-feed,no changes in body weight as compared with the control group
same,Body weight gain after 12 days,[2]; [6],0.6 ± 0.1 g
same,Body weight gain after 13 days,[2]; [6],2.0 ± 0.3 g
"CC1=CC(=O)NS(=O)(=O)O1 [Acesulfame K, acesulfame potassium]",Plasma active GLP-1 concentration (relative value),active GLP-1 in plasma [3]; sweetener 1 g/kg orally combined with Compound A′ 10 mg/kg orally,149
same,Plasma active GLP-1 concentration (relative value),active GLP-1 in plasma [3]; [7],377
same,Increase in AUC of Plasma active GLP-1,active GLP-1 in plasma [1]; [8],51 ± 1 pM·h
same,fat mass (g) as compared with the control group,[2],decreased significantly
same,lean mass (g) in comparison with the control group,[2],no change in lean mass
same,body weights as compared with the control group,[2],body weights significantly decreased as compared with the control group
same,body weight as compared with the control group,[2]; [9],no significant differences as compared with the control group
same,Body weight gain after 12 days,[2]; [10],-0.5 ± 0.3 g
same,Body weight gain after 12 days,[2]; [11],-1.0 ± 0.4 g
"CCC(=O)N1CCN(C2CCC(C)(NCC(=O)N3CCC[C@H]3C#N)CC2)CC1 (stereo partly drawn) [Compound B, (2S)-2-cyano-1-[t-4-(4-propionyl-1-piperazinyl)-1-methyl-r-1-cyclohexylamino]acetyl pyrrolidine]",Increase in AUC of Plasma active GLP-1,active GLP-1 in plasma [1]; [5],153 ± 14 pM·h
O=C[C@H](O)[C@@H](O)[C@@H](O)[C@H](O)CO [D-galactose],blood GLP-1 levels following administration,GLP-1,blood GLP-1 levels are increased
O=C[C@H](O)[C@@H](O)[C@H](O)[C@H](O)CO [D-glucose],blood GLP-1 levels following administration,GLP-1,blood GLP-1 levels are increased
OC[C@@H](O)[C@@H](O)[C@H](O)[C@H](O)CO [D-mannitol],Plasma active GLP-1 concentration (relative value),active GLP-1 in plasma [3]; [7],160
same,Plasma active GLP-1 concentration (relative value),active GLP-1 in plasma [3]; [12],742
same,Increase in AUC of Plasma active GLP-1,active GLP-1 in plasma [1]; [8],85 ± 1 pM·h
same,fat mass (g) as compared with the control group,[2],decreased significantly
same,lean mass (g) in comparison with the control group,[2],no change in lean mass
same,body weights as compared with the control group,[2],body weights significantly decreased as compared with the control group
same,body weight as compared with the control group,[2]; [9],no significant differences as compared with the control group
same,Body weight gain after 13 days,[2]; [10],1.1 ± 0.5 g
same,Body weight gain after 13 days,[2]; [11],0.2 ± 0.7 g
"OC[C@@H](O)[C@@H](O)CO [Erythritol, erythritol]",Plasma active GLP-1 concentration (relative value),active GLP-1 in plasma [3]; [7],147
same,Plasma active GLP-1 concentration (relative value),active GLP-1 in plasma [3]; [12],461
same,body weights as compared with the control group,[4]; [13],decreases in body weights were observed
same,body weights as compared with the control group,[4]; [14],decreases in body weights were not observed
same,Body weight gain After 8 days,[4],0.2 ± 0.1 g
same,Body weight gain After 15 days,[4],0.9 ± 0.3 g
"OC[C@H]1O[C@@](CO)(OC[C@@]2(O[C@H]3O[C@H](CO)[C@@H](O)[C@H](O)[C@H]3O)O[C@H](CO)[C@@H](O)[C@@H]2O)[C@@H](O)[C@@H]1O [Kestose, glucose-1,2-fructose-1,2-fructose]",Plasma active GLP-1 concentration (relative value),active GLP-1 in plasma [3]; [12],166
"O=C[C@H](O)[C@@H](O)[C@H](O)[C@H](O)CO[C@H]1O[C@H](CO)[C@H](O)[C@H](O)[C@H]1O [Melibiose, α-D-galactopyranosyl-(1→6)-D-glucose]",Plasma active GLP-1 concentration (relative value),active GLP-1 in plasma [3]; [12],454
same,Increase in AUC of Plasma active GLP-1,active GLP-1 in plasma [1]; sweetener 6 g/kg orally alone (purified water instead of DPP4 inhibitor),95 ± 2 pM·h
same,body weights as compared with the control group,[2],body weights significantly decreased as compared with the control group
same,body weight as compared with the control group,[2]; [9],no significant differences as compared with the control group
same,Body weight gain after 13 days,[2]; [10],2.2 ± 0.2 g
same,Body weight gain after 13 days,[2]; [11],0.9 ± 0.4 g
"OC[C@H]1O[C@H](OC[C@H]2O[C@H](O[C@]3(CO)O[C@H](CO)[C@@H](O)[C@@H]3O)[C@H](O)[C@@H](O)[C@@H]2O)[C@H](O)[C@@H](O)[C@H]1O [Raffinose, β-D-fructofuranosyl α-D-galactopyranosyl-(1→6)-α-D-glucopyranoside]",Plasma active GLP-1 concentration (relative value),active GLP-1 in plasma [3]; [12],77
"OC[C@@H](O)[C@@H](O)[C@H](O)[C@@H](O)CO [Sorbitol, sorbitol]",Plasma active GLP-1 concentration (relative value),active GLP-1 in plasma [3]; [7],286
same,Plasma active GLP-1 concentration (relative value),active GLP-1 in plasma [3]; [12],863
same,body weights as compared with the control group,[4]; [13],decreases in body weights were observed
same,body weights as compared with the control group,[4]; [14],decreases in body weights were not observed
same,Body weight gain After 8 days,[4],-0.7 ± 0.4 g
same,Body weight gain After 15 days,[4],0.8 ± 0.3 g
"OC[C@H]1O[C@H](O[C@]2(CCl)O[C@H](CCl)[C@@H](O)[C@@H]2O)[C@H](O)[C@@H](O)[C@H]1Cl [Sucralose, sucralose]",Plasma active GLP-1 concentration (relative value),active GLP-1 in plasma [3]; [12],166
OC[C@H]1O[C@@](CO)(O[C@H]2O[C@H](CO)[C@@H](O)[C@H](O)[C@H]2O)[C@@H](O)[C@@H]1O [sucrose],blood GLP-1 levels following administration,GLP-1,blood GLP-1 levels are increased
